Patent US20100003217A1, “Compounds and Pharmaceutical Compositions for the Treatment of Viral Infections” (priority 2008, published 2010)
“And” between values parts separate entries of the source, which are not always exact repeats. Equal values may be shown once.

How the values were obtained:
[1] = tested on: monkey primary hepatocytes; experiment: Metabolic disposition of [^14C]-Compound 1 and [^14C]-2′-C-methyl guanosine in monkey primary hepatocytes (incubation medium, cellular extracts, nucleotide levels); assay type: in vitro ADME, Cynomolgus monkey
Procedure: (§1) Primary hepatocytes: Freshly isolated cells from animal and human liver were obtained in suspension on ice. Cells were pelleted by centrifugation at 70-75×g (rat) or 95-90×g (monkey and human) and resuspended at 0.8 million cells per mL of platting medium (William's E supplemented with 5% FBS, 0.5% penicillin-streptomycin, 1% L-glutamine, 4 μg/mL insulin and 1 μM dexamethasone). Multi-well collagen I-coated plates (rat tail collagen type I; 12- or 6-well) were then seeded by addition of 1 mL (12-well; 0.8 million cells/well) or 2 mL (6-well; 1.6 million cells/well) of cell suspension. The plates were gently shaken to evenly distribute the cells and placed in an incubator at 37° C. for approximately 4 to 6 hours to allow cells to attach. Once cells were attached, the platting medium was removed and replaced with hepatocyte culture medium (William's E supplemented with penicillin-streptomycin, 1% L-glutamine, 1% insulin-transferrin-selenium and 0.1 μM dexamethasone). Cells were left overnight in an incubator at 37° C. to acclimatize to culture and the medium.
(§2) Hepatocyte incubations with radiolabeled Compound 1 and 2′-C-methyl guanosine, both labeled in the C-8 position of the guanine moiety, were conducted at a final volume of 2.0 mL hepatocyte culture medium/well ([…]). Culture medium from overnight incubation of cells was removed and replaced with fresh medium, pre-warmed to 37° C., containing 1 or 10 μM [^14C]-Compound 1 ([…]) or [^14C]-2′-C-methyl guanosine (127 DPM/μmol) from a stock solution in DMSO (final DMSO concentration was 0.1%) or 50% ethanol (final ethanol concentration was 0.2%). After 1, 4, 8 and 24 hours, 0.5-1.0 mL of incubation medium was removed and stored at −20° C. until analysis (described below). The remaining medium was discarded and cell monolayers were carefully washed two times with ice-cold PBS. Following the last wash, all PBS was carefully removed and 1.0 mL of extraction solution (ice-cold 70% methanol) added. Cells were scrapped off and suspended in the extraction solution, transferred to 2 mL polypropylene microfuge tubes and intracellular contents extracted overnight at −20° C.
(§3) Preliminary identification of putative metabolites was conducted by comparing the retention time of observed metabolites in incubation medium and cellular extracts with retention times obtained with chemically synthesized standards using the chromatography conditions described below. Further identification of 2′-C-methyl guanosine nucleotides (mono-, di- and triphosphate) was carried out by incubating cellular extract samples with alkaline phosphatase (10 units for 60 min at 37° C.) and comparing the HPLC retention times of the resulting nucleosides with that of authentic 2′-C-methyl guanosine.
(§4) Cellular extracts were prepared by centrifugation at 16,000 RCF using an Eppendorf microcentrifuge (Eppendorf, Model 5415D) for 10 min to remove cellular debris. An aliquot of 5-10 μL of the supernatant was added to 5 mL of EcoLite™ (MP, Irvine, Calif.) liquid scintillation cocktail and radioactivity measured by liquid scintillation counting (LSC) using a Beckman Coulter LS6500 multipurpose liquid scintillation counter (Beckman Instruments, Fullerton, Calif.). The remaining sample was then dried using a Labconco refrigerated centrivap concentrator (Labconco, Kansas City, Mo.). Dry extracts were reconstituted in 120 μL of HPLC-grade water and centrifuged at 16,000 RCF using an Eppendorf microcentrifuge for 10 min. Prior to HPLC analysis (described below), radioactivity of the concentrated extracts was measured by LSC using 5 μL aliquots. Extraction recovery was then determined by comparing total radioactivity in extracts before and after drying. The remaining extract was then analyzed by HPLC with online radioactivity detection using a Flow Scintillation Analyzer Radiomatic™ 515TR. Radioactivity in the separated components was quantified by integrating the peaks using Flo-One™ Software (Perkin Elmer Life Sciences). […]

rat primary hepatocytes = experiment: Metabolic disposition of [^14C]-Compound 1 and [^14C]-2′-C-methyl guanosine in rat primary hepatocytes (incubation medium, cellular extracts, nucleotide levels); assay type: in vitro ADME, Sprague Dawley rat
Procedure: as §1, §2, §3, §4

[2] = monkey hepatocytes (lot Cy234), 10 μM [^14C]-Compound 1, 4 h
[3] = monkey hepatocytes (lots Cy230, Cy234), 10 μM [^14C]-Compound 1, 0 h
[4] = monkey hepatocytes (lots Cy230, Cy234), 10 μM [^14C]-Compound 1, 1 h
[5] = monkey hepatocytes (lots Cy230, Cy234), 10 μM [^14C]-Compound 1, 24 h
[6] = rat hepatocytes (Rs448, Rs458), 10 μM [^14C]-Compound 1, 8 h
[7] = rat hepatocytes (Rs448, Rs458), 10 μM [^14C]-Compound 1, 24 h
[8] = rat hepatocytes (Rs458), 1 μM [^14C]-Compound 1, 0 h
[9] = rat hepatocytes (Rs458), 1 μM [^14C]-Compound 1, 1 h
[10] = rat hepatocytes (Rs458), 1 μM [^14C]-Compound 1, 8 h
[11] = rat hepatocytes (Rs458), 1 μM [^14C]-Compound 1, 24 h
[12] = rat hepatocytes (lots Rs448, Rs458), 10 μM [^14C]-Compound 1, 0 h
[13] = rat hepatocytes (lots Rs448, Rs458), 10 μM [^14C]-Compound 1, 1 h
[14] = rat hepatocytes (lots Rs448, Rs458), 10 μM [^14C]-Compound 1, 4 h
[15] = rat hepatocytes (lots Rs448, Rs458), 10 μM [^14C]-Compound 1, 8 h
[16] = rat hepatocytes (lots Rs448, Rs458), 10 μM [^14C]-Compound 1, 24 h

Structure (SMILES)	metabolites observed in medium (% of total radioactivity) [1, 2]	metabolites observed in medium (% of total radioactivity) [1, 3]	metabolites observed in medium (% of total radioactivity) [1, 4]	metabolites observed in medium (% of total radioactivity) [1, 5]	metabolites observed in cellular extracts (% of total radioactivity) (rat primary hepatocytes; [6])	metabolites observed in cellular extracts (% of total radioactivity) (rat primary hepatocytes; [7])	metabolites observed in medium (% of total radioactivity) (rat primary hepatocytes; [8])	metabolites observed in medium (% of total radioactivity) (rat primary hepatocytes; [9])	metabolites observed in medium (% of total radioactivity) (rat primary hepatocytes; [10])	metabolites observed in medium (% of total radioactivity) (rat primary hepatocytes; [11])	metabolites observed in medium (% of total radioactivity) (rat primary hepatocytes; [12])	metabolites observed in medium (% of total radioactivity) (rat primary hepatocytes; [13])	metabolites observed in medium (% of total radioactivity) (rat primary hepatocytes; [14])	metabolites observed in medium (% of total radioactivity) (rat primary hepatocytes; [15])	metabolites observed in medium (% of total radioactivity) (rat primary hepatocytes; [16])	other results
C[C@@]1(O)[C@H](O)[C@@H](COP(=O)(O)NCc2ccccc2)O[C@H]1n1cnc2c(=O)[nH]c(N)nc21 [Compound 2, [(2R)-2-methyl-β-D-ribofuranosyl]guanine-N-benzylaminyl-5′-monophosphate]	1.1%	1.0% and 6.2%	1.9% and 0.6%	7.0% and 8.2%	BLD	BLD	1.05%	3.02%	9.52%	7% and 7.43%	2.2% and 1.5%	1.9% and 1.5%	5.3% and 5.1%	5.7% and 6.8%	3.7% and 4.6%	metabolites observed in cellular extracts (% of total radioactivity) ([1]; monkey hepatocytes (Cy230, Cy234), 10 μM [^14C]-Compound 1, 1 h): 3.20% and 7.96%; metabolites observed in cellular extracts (% of total radioactivity) ([1]; monkey hepatocytes (Cy230, Cy234), 10 μM [^14C]-Compound 1, 8 h): BLD^c and BLD; metabolites observed in cellular extracts (% of total radioactivity) ([1]; monkey hepatocytes (Cy230, Cy234), 10 μM [^14C]-Compound 1, 24 h): BLD; metabolites observed in cellular extracts (% of total radioactivity) ([1]; monkey hepatocytes (Cy234), 10 μM [^14C]-Compound 1, 4 h): 1.25%; metabolites observed in medium (% of total radioactivity) ([1]; monkey hepatocytes (lots Cy230, Cy234), 10 μM [^14C]-Compound 1, 8 h): 8.5% and 1.8%; metabolites observed in cellular extracts (% of total radioactivity) (rat primary hepatocytes; rat hepatocytes (Rs448, Rs458), 10 μM [^14C]-Compound 1, 1 h, listed as Compd 2): 1.92% and 3.48%; metabolites observed in cellular extracts (% of total radioactivity) (rat primary hepatocytes; [9]): 5.83%; metabolites observed in cellular extracts (% of total radioactivity) (rat primary hepatocytes; [10]): BLD; metabolites observed in cellular extracts (% of total radioactivity) (rat primary hepatocytes; [11]): BLD
CC(C)(CO)C(=O)SCCOP(N)(=O)OC[C@H]1O[C@@H](n2cnc3c(=O)[nH]c(N)nc32)[C@](C)(O)[C@@H]1O (mixture of isomers) [Compound 3, {9-[(2R)2-C-methyl-β-D-ribo-furanosyl]-guanin}-5′-yl-O-(hydroxy-tert-butyl-S-acyl-2-thioethyl) phosphoramidate]	BLD	BLD	BLD	3.1% and 0.9%	BLD	BLD	BLD	BLD	BLD	1.7% and 1.71%	BLD	BLD	0.9%	1.4% and 2.1%	1.4% and 1.7%	
